# pIC50: −log10 of the molar value.
# Assays:
# [1] = target: T1, CRFR1 (human CRF receptor 1, corticotropin-releasing factor receptor 1) (Homo sapiens, UniProt P34998); assay: HTRF cAMP assay, antagonist mode, transfected CHO cells; KB from IC50 by modified Cheng-Prusoff equation; assay type: cell-based
# T1 construct: gene CRHR1; receptor expressed in transfected CHO cells (Cerep)
# T1 sequence (P34998 24-415): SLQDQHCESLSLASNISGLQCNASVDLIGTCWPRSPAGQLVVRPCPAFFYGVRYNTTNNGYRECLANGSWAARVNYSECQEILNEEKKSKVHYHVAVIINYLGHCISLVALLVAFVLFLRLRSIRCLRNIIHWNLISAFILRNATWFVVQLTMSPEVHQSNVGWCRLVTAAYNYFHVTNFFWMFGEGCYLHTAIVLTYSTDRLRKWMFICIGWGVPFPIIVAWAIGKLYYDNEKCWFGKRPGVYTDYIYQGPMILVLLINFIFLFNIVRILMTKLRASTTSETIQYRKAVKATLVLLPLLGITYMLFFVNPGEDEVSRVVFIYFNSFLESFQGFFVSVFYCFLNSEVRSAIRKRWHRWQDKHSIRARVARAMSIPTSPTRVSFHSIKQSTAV
# Text: HTRF cAMP assay, antagonist mode, transfected CHO cells; KB from IC50 by modified Cheng-Prusoff equation on CRFR1 (human CRF receptor 1, corticotropin-releasing factor receptor 1)
# [2] = target: T1, CRFR1 (human CRF receptor 1, corticotropin-releasing factor receptor 1); assay: HTRF cAMP assay, antagonist mode, transfected CHO cells; assay type: cell-based
# Text: HTRF cAMP assay, antagonist mode, transfected CHO cells on CRFR1 (human CRF receptor 1, corticotropin-releasing factor receptor 1)
Compound,Kb [1] [µM],pIC50 [2]
COc1ccc([C@@H]2CC(=O)c3c(O)cc(O)cc3O2)cc1O [Hesperetin],45,3.89
O=C(/C=C/c1ccc(O)cc1)c1ccc(O)cc1O [Isoliquiritigenin],0.67,4.55
COc1ccc(-c2cc(=O)c3c(OC)c(OC)c(OC)c(OC)c3o2)cc1 [Tangeretin],1.5,4.22
COc1ccc(-c2cc(=O)c3c(OC)c(OC)c(OC)c(OC)c3o2)cc1OC [Nobiletin],0.36,4.82
CC1(C)[C@@H](O)CC[C@]2(C)[C@H]3C(=O)C=C4[C@@H]5C[C@@](C)(C(=O)O)CC[C@]5(C)CC[C@@]4(C)[C@]3(C)CC[C@@H]12 [Glycyrrhetic acid],0.35,4.85
COc1c(CC=C(C)C)c(O)cc2oc(=O)c(-c3ccc(O)cc3O)cc12 [Glycycoumarin],1.3,4.28
CCCCCCC/C=C/C(=O)CCc1ccc(O)c(OC)c1 [[8]-Shogaol],1.8,4.13
